Experimental data from patent US4885309A, “Therapeutic treatment of leukotriene-mediated dermal inflammation by topical administration of 3,4-dihydro-2H-1-benzopyran derivatives” (Hoffmann-La Roche Inc., priority 1986, dated 1989).

Assays:
[1] = tested on: leukotriene-induced vascular permeability; test: Inhibition of leukotriene (LTD4)-induced vascular permeability by topical test compound, rats; type: in vivo, male rats (Sprague-Dawley strain); settings: for % Inhibition (± S.E.M.): rat, topical 4 hours prior to LTD4 injection
Procedure: (§1) The test compound was administered to the same number of animals as before by applying one drop (50 microliters) directly on the skin surface of a 10% by weight solution of the test compound in dimethylsulfoxide (DMSO). This amounted to 5 mg of test compound per site of application. […] Evans blue dye (0.5% in saline) was then injected intravenously into each animal, using the same procedure describd for Part (a), above. After thirty minutes the animals were sacrificed, the dorsal skins were removed, and the extent of dye migration was measured as above. The effectiveness of the test compound was calculated as the Percent (%) Inhibition of Leukotriene-Induced Permeability, as follows: [formula] where MWS=mean wheal size.

[2] = tested on: leukotriene-induced vascular permeability; test: Inhibition of leukotriene (LTD4)-induced vascular permeability by topical test compound, guinea pigs; type: in vivo, male guinea pigs (Hartley strain); settings: for % Inhibition (± S.E.M.): guinea pig, topical 4 hours prior to LTD4 injection
Procedure: as §1

[3] = tested on: arachidonic acid-induced ear edema; test: Mouse ear edema test (in vivo), arachidonic acid-induced; design: species or system CD-1 male mice; settings: for % Inhibition (± S.E.M.): eight mice
Text: Dermatol. 80: 48 (1983), and Humes, Opas and Bonney, "Arachidonic Acid Metabolites in Mouse Ear Edema". Advances in Inflammation Research, 11: 57 (1986).
CD-1 male mice weighing 15 to 25 g were employed, and they were designated as follows: (1) Control Group, in which no arachidonic acid or test compound were to be applied, (2) Arachidonic Acid-Treated Group, in which no test compound was to be applied, and (3) Treated Group, in which the test compound was to be applied first, followed by the application of arachidonic acid. The test compound was again racemic-6-acetyl-7-[5-(4-acetyl-3-hydroxy-2-propylphenoxy)pentyloxy]-3,4-dihydro-2H-1-benzopyran-2-carboxylic acid.
In the case of the Group (3) animals, the test compound, dissolved in acetone, was applied to the dorsal surface of the right ear of the mouse with a 25-microliter pipettor, with the dose of the test compound being varied as shown in Tables 3 and 4. After 0.5 hour in some cases and 4 hours in others, the arachidonic acid was topically applied in the same manner as above to the pretreated ear areas. In each case of arachidonic acid application, an amount of 0.5 mg dissolved in 25 microliters of acetone was used. Application was made topically to the dorsal surface of the right ear with a 25-microliter pipettor. After one hour, the mice were sacrificed by carbon dioxide inhalation. A 6 mm-diameter standard biopsy punch was used to obtain a uniform tissue sample from the ear of each mouse so treated, and the tissue samples were weighed to the nearest 0.1 mg. The percent inhibition of ear edema formation was calculated as follows: [formula]

CCCc1c(OCCCCCOc2cc3c(cc2C(C)=O)CCC(C(=O)O)O3)ccc(C(C)=O)c1O (racemic) [test compound, 6-acetyl-7-[5-(4-acetyl-3-hydroxy-2-propylphenoxy)pentyloxy]-3,4-dihydro-2H-1-benzopyran-2-carboxylic acid]
% Inhibition (± S.E.M.) ([1]; 2.5% in DMSO): 28 ± 4% | % Inhibition (± S.E.M.) ([1]; 5.0% in DMSO): 50 ± 6% | % Inhibition (± S.E.M.) ([1]; 10.0% in DMSO): 59 ± 6% | % Inhibition (± S.E.M.) ([1]; 25.0% in DMSO): 67 ± 5% | time of peak activity (inhibition of leukotriene-induced vascular permeability) ([1]; rats, relative to guinea pigs (2-4 hours), 5 mg per site (10% in DMSO) topical, LTD4 0.4 microgram per site): somewhat later | inhibition of leukotriene-induced vascular permeability ([1]; rats, 5 mg per site (10% in DMSO) topical, time variation): inhibited leukotriene-induced vascular permeability | inhibition of leukotriene-induced vascular permeability increase, variation of concentration ([1]; rats, topical 4 hours prior to leukotriene injection): inhibited the leukotriene-induced vascular permeability increase in a dose-related manner | % Inhibition (± S.E.M.) ([2]; 5.0% in DMSO): 11 ± 3% | % Inhibition (± S.E.M.) ([2]; 10.0% in DMSO): 33 ± 3% | % Inhibition (± S.E.M.) ([2]; 15.0% in DMSO): 43 ± 4% | % Inhibition (± S.E.M.) ([2]; 25.0% in DMSO): 49 ± 4% | inhibition of leukotriene-induced vascular permeability ([2]; guinea pigs, 5 mg per site (10% in DMSO) topical, time variation): inhibited leukotriene-induced vascular permeability | time of peak activity (inhibition of leukotriene-induced vascular permeability) ([2]; guinea pigs, 5 mg per site (10% in DMSO) topical, LTD4 0.4 microgram per site): 2 to 4 h | inhibition of leukotriene-induced vascular permeability increase, variation of concentration ([2]; guinea pigs, topical 4 hours prior to leukotriene injection): inhibited the leukotriene-induced vascular permeability increase in a dose-related manner | % Inhibition (± S.E.M.) ([3]; 0.5 Hour Pretreatment, 0.1 mg applied topically in 25 μl acetone): 19 ± 10% | % Inhibition (± S.E.M.) ([3]; 0.5 Hour Pretreatment, 0.2 mg applied topically in 25 μl acetone): 21 ± 12% | % Inhibition (± S.E.M.) ([3]; 0.5 Hour Pretreatment, 0.5 mg applied topically in 25 μl acetone): 42 ± 12% | % Inhibition (± S.E.M.) ([3]; 0.5 Hour Pretreatment, 1.0 mg applied topically in 25 μl acetone): 63 ± 4% | % Inhibition (± S.E.M.) ([3]; 0.5 Hour Pretreatment, 2.0 mg applied topically in 25 μl acetone): 65 ± 1% | % Inhibition (± S.E.M.) ([3]; 4 Hour Pretreatment, 0.1 mg applied topically in 25 μl acetone): 26 ± 9% | % Inhibition (± S.E.M.) ([3]; 4 Hour Pretreatment, 0.2 mg applied topically in 25 μl acetone): 31 ± 12% | % Inhibition (± S.E.M.) ([3]; 4 Hour Pretreatment, 0.5 mg applied topically in 25 μl acetone): 28 ± 9% | % Inhibition (± S.E.M.) ([3]; 4 Hour Pretreatment, 1.0 mg applied topically in 25 μl acetone): 37 ± 7% | % Inhibition (± S.E.M.) ([3]; 4 Hour Pretreatment, 2.0 mg applied topically in 25 μl acetone): 68 ± 7% | inhibition of edema ([3]; amounts up to 2 mg, both 0.5 and 4 hours prior to arachidonic acid application): significant inhibition of edema
